This is an account of results in ChEMBL document CHEMBL5055626 (J Med Chem, 2021).

By IC50 is commonly meant the concentration that inhibits the measured activity by half.

A short description of experiment [1]: Antagonist activity at rat nAChR alpha7 K186R mutant expressed in xenopus oocytes assessed as inhibition of Ach- induced response at -70 mV holding potential preincubated for 5 mins followed by Ach stimulation by voltage-clamp based electrophysiological method. Format: cell-based. Particulars: Oocyte.
Experiment [2] can be described thus: Antagonist activity at human nAChR alpha7 R186K mutant expressed in xenopus oocytes assessed as inhibition of Ach- induced response at -70 mV holding potential preincubated for 5 mins followed by Ach stimulation by voltage-clamp based electrophysiological method. Format: cell-based. The conditions noted are these: Oocyte.
Experiment [3] in a line: Antagonist activity at rat nAChR alpha7 Y200F mutant expressed in xenopus oocytes assessed as inhibition of Ach- induced response at -70 mV holding potential preincubated for 5 mins followed by Ach stimulation by voltage-clamp based electrophysiological method. Format: cell-based. The conditions noted are these: Oocyte.
A short description of experiment [4]: Antagonist activity at rat nAChR alpha7 A112S mutant expressed in xenopus oocytes assessed as inhibition of Ach- induced response at -70 mV holding potential preincubated for 5 mins followed by Ach stimulation by voltage-clamp based electrophysiological method. Format: cell-based. Particulars: Oocyte.
Experiment [5] can be described thus: Antagonist activity at rat alpha6/ alpha3beta2beta3 nAChR expressed in xenopus oocytes assessed as inhibition of Ach- induced response at -70 mV holding potential preincubated for 5 mins followed by Ach stimulation by voltage-clamp based electrophysiological method. The class given is cell-based. The conditions noted are these: Oocyte.
The target in experiment [6] is Nicotinic acetylcholine receptor alpha9/alpha10 (Rattus norvegicus) (UniProt P43144+Q9JLB5). The experiment is described as follows: Antagonist activity at rat alpha9alpha10 nAChR expressed in xenopus oocytes assessed as inhibition of Ach- induced response at 10 uM at -70 mV holding potential preincubated for 5 mins followed by Ach stimulation by voltage-clamp based electrophysiological method. The class given is cell-based. Particulars: Oocyte.

Experiment [7] is described as follows: Antagonist activity at human nAChR alpha7 S184N/R186K double mutant expressed in xenopus oocytes assessed as inhibition of Ach- induced response at -70 mV holding potential preincubated for 5 mins followed by Ach stimulation by voltage-clamp based electrophysiological method. The class given is cell-based. Particulars: Oocyte.
Experiment [8] deals with Neuronal acetylcholine receptor; alpha2/beta2 (Rattus norvegicus, UniProt P12389+P12390). The experiment is described as follows: Antagonist activity at rat alpha2beta2 nAChR expressed in xenopus oocytes assessed as inhibition of Ach- induced response at -70 mV holding potential preincubated for 5 mins followed by Ach stimulation by voltage-clamp based electrophysiological method. The class given is cell-based, Oocyte.

The nature of experiment [9]: Antagonist activity at rat nAChR alpha7 M69V mutant expressed in xenopus oocytes assessed as inhibition of Ach- induced response at -70 mV holding potential preincubated for 5 mins followed by Ach stimulation by voltage-clamp based electrophysiological method. The class given is cell-based. The conditions noted are these: Oocyte.
For experiment [10], the target named is Neuronal acetylcholine receptor; alpha2/beta4 (Rattus norvegicus) (UniProt P12389+P12392). The experiment is described as follows: Antagonist activity at rat alpha2beta4 nAChR expressed in xenopus oocytes assessed as inhibition of Ach- induced response at 10 uM at -70 mV holding potential preincubated for 5 mins followed by Ach stimulation by voltage-clamp based electrophysiological method. The class given is cell-based. Particulars: Oocyte.

Experiment [11] addresses Nicotinic acetylcholine receptor alpha6/alpha3/beta4 (Homo sapiens, UniProt P30926+P32297+Q15825). Kind of experiment: Antagonist activity at rat alpha6/alpha3beta4 nAChR expressed in xenopus oocytes assessed as inhibition of Ach- induced response at -70 mV holding potential preincubated for 5 mins followed by Ach stimulation by voltage-clamp based electrophysiological method. The class given is cell-based, Oocyte.

The target of experiment [12] is Neuronal acetylcholine receptor subunit alpha-7 (Homo sapiens, UniProt P36544). Format: cell-based, Oocyte.
Experiment [13] has as its target Neuronal acetylcholine receptor; alpha2/beta4 (Rattus norvegicus, UniProt P12389+P12392). The experiment is described as follows: Antagonist activity at rat alpha2beta4 nAChR expressed in xenopus oocytes assessed as inhibition of Ach- induced response at -70 mV holding potential preincubated for 5 mins followed by Ach stimulation by voltage-clamp based electrophysiological method. The class given is cell-based, Oocyte.

A short description of experiment [14]: Antagonist activity at human nAChR alpha7 H141Q/S184N/R186K triple mutant expressed in xenopus oocytes assessed as inhibition of Ach- induced response at -70 mV holding potential preincubated for 5 mins followed by Ach stimulation by voltage-clamp based electrophysiological method. Format: cell-based. Particulars: Oocyte.
Experiment [15] addresses Neuronal acetylcholine receptor; alpha4/beta4 (Rattus norvegicus, UniProt P09483+P12392). Kind of experiment: Antagonist activity at rat alpha4beta4 nAChR expressed in xenopus oocytes assessed as inhibition of Ach- induced response at -70 mV holding potential preincubated for 5 mins followed by Ach stimulation by voltage-clamp based electrophysiological method. The class given is cell-based, Oocyte.

Experiment [16] deals with Neuronal acetylcholine receptor; alpha3/beta4 (Rattus norvegicus) (UniProt P04757+P12392). Kind of experiment: Antagonist activity at rat alpha3beta4 nAChR expressed in xenopus oocytes assessed as inhibition of Ach- induced response at 10 uM at -70 mV holding potential preincubated for 5 mins followed by Ach stimulation by voltage-clamp based electrophysiological method. The class given is cell-based. Particulars: Oocyte.

The nature of experiment [17]: Antagonist activity at rat nAChR alpha7 R6K mutant expressed in xenopus oocytes assessed as inhibition of Ach- induced response at -70 mV holding potential preincubated for 5 mins followed by Ach stimulation by voltage-clamp based electrophysiological method. Format: cell-based. Particulars: Oocyte.
In experiment [18] the target is Nicotinic acetylcholine receptor alpha9/alpha10 (Rattus norvegicus, UniProt P43144+Q9JLB5). Kind of experiment: Antagonist activity at rat alpha9alpha10 nAChR expressed in xenopus oocytes assessed as inhibition of Ach- induced response at -70 mV holding potential preincubated for 5 mins followed by Ach stimulation by voltage-clamp based electrophysiological method. Format: cell-based, Oocyte.

Experiment [19] is described as follows: Antagonist activity at rat nAChR alpha7 N184S mutant expressed in xenopus oocytes assessed as inhibition of Ach- induced response at -70 mV holding potential preincubated for 5 mins followed by Ach stimulation by voltage-clamp based electrophysiological method. Format: cell-based. The conditions noted are these: Oocyte.
The target in experiment [20] is Neuronal acetylcholine receptor; alpha3/beta4 (Rattus norvegicus, UniProt P04757+P12392). The experiment is described as follows: Antagonist activity at rat alpha3beta4 nAChR expressed in xenopus oocytes assessed as inhibition of Ach- induced response at -70 mV holding potential preincubated for 5 mins followed by Ach stimulation by voltage-clamp based electrophysiological method. The class given is cell-based, Oocyte.

Experiment [21] can be described thus: Antagonist activity at rat nAChR alpha7 N77T mutant expressed in xenopus oocytes assessed as inhibition of Ach- induced response at -70 mV holding potential preincubated for 5 mins followed by Ach stimulation by voltage-clamp based electrophysiological method. The class given is cell-based. The conditions noted are these: Oocyte.
The target of experiment [22] is Neuronal acetylcholine receptor; alpha4/beta2 (Rattus norvegicus, UniProt P09483+P12390). The experiment is described as follows: Antagonist activity at rat alpha4beta2 nAChR expressed in xenopus oocytes assessed as inhibition of Ach- induced response at -70 mV holding potential preincubated for 5 mins followed by Ach stimulation by voltage-clamp based electrophysiological method. Format: cell-based, Oocyte.

The nature of experiment [23]: Antagonist activity at human nAChR alpha7 H141Q mutant expressed in xenopus oocytes assessed as inhibition of Ach- induced response at -70 mV holding potential preincubated for 5 mins followed by Ach stimulation by voltage-clamp based electrophysiological method. The class given is cell-based. The conditions noted are these: Oocyte.
Experiment [24] can be described thus: Antagonist activity at rat nAChR alpha7 S167G mutant expressed in xenopus oocytes assessed as inhibition of Ach- induced response at -70 mV holding potential preincubated for 5 mins followed by Ach stimulation by voltage-clamp based electrophysiological method. The class given is cell-based. The conditions noted are these: Oocyte.

Structures are written as SMILES. Active and inactive are the calls of the source. The rule behind the calls is not given here. Where a SMILES comes first, the peptide text is derived from it. Bridges are numbered along the chain shown (N, C = ends). A value given as a limit tells only on which side of the number the result lay.

Sequence of Nicotinic acetylcholine receptor alpha9/alpha10 (P43144 whole entry): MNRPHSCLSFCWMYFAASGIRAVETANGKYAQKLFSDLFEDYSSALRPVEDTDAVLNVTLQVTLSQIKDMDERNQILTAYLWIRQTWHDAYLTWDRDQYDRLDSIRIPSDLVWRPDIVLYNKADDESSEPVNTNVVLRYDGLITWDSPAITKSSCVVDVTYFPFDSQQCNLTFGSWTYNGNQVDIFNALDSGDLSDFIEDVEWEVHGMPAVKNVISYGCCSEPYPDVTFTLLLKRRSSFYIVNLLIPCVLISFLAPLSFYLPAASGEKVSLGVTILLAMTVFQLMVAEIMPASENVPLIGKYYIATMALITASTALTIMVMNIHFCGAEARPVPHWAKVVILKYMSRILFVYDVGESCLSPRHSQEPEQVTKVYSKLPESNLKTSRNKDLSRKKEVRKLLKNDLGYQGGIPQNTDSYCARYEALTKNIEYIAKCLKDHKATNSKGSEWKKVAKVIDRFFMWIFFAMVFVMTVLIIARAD
Sequence of Nicotinic acetylcholine receptor alpha9/alpha10 (Q9JLB5 whole entry): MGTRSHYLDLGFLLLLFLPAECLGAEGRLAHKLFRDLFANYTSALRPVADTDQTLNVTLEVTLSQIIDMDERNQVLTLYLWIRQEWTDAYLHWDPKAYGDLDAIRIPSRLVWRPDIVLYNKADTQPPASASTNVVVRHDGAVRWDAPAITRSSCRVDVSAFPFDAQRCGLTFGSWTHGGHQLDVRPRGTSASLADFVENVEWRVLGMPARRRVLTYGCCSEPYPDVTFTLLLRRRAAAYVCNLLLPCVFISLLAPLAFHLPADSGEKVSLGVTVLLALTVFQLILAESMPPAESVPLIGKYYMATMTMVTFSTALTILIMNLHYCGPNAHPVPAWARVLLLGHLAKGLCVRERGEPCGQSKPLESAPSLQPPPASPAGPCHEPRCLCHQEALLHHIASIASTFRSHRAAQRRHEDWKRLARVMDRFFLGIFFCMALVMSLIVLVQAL
Sequence of Nicotinic acetylcholine receptor alpha6/alpha3/beta4 (P30926 whole entry): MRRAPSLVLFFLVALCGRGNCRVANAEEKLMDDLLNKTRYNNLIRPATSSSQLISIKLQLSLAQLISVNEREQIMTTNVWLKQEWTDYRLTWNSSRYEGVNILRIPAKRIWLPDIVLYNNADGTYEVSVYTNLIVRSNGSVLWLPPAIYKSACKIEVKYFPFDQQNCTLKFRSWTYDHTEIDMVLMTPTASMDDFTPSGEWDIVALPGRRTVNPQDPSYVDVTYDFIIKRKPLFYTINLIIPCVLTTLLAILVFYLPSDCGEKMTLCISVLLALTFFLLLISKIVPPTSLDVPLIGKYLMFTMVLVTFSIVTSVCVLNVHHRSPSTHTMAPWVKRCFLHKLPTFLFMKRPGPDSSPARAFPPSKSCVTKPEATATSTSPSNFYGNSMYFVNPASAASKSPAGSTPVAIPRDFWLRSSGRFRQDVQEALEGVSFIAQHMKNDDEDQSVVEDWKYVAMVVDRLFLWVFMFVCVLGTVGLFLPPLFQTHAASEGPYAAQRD
Sequence of Nicotinic acetylcholine receptor alpha6/alpha3/beta4 (P32297 whole entry): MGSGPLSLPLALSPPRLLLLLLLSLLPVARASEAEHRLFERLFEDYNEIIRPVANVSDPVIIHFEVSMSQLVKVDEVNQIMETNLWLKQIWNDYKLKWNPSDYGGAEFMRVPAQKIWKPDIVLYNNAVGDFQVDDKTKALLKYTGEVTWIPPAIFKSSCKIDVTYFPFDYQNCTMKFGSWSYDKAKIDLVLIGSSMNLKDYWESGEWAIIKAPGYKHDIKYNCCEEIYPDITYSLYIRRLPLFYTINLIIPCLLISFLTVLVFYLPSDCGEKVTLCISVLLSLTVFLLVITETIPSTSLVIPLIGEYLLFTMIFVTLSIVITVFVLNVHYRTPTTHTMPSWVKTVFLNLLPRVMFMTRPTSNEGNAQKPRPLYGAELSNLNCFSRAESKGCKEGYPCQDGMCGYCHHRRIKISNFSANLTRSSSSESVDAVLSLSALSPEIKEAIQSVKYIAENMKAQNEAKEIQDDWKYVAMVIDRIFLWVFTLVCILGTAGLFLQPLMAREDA
Sequence of Nicotinic acetylcholine receptor alpha6/alpha3/beta4 (Q15825 whole entry): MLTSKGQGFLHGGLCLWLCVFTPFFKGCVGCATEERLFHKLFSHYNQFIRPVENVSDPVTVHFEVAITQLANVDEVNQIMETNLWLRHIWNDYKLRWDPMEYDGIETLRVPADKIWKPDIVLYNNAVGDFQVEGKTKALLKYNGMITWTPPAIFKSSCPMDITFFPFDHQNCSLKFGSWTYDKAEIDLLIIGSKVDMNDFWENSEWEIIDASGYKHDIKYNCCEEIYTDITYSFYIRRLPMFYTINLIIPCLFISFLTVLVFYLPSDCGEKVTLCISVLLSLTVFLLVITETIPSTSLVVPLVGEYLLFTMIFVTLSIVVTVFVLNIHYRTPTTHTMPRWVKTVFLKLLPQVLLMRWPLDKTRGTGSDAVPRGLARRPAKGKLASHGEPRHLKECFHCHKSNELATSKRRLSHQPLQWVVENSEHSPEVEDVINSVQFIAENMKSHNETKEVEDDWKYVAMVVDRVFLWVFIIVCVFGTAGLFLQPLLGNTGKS
Sequence of Neuronal acetylcholine receptor; alpha2/beta4 (P12389 whole entry): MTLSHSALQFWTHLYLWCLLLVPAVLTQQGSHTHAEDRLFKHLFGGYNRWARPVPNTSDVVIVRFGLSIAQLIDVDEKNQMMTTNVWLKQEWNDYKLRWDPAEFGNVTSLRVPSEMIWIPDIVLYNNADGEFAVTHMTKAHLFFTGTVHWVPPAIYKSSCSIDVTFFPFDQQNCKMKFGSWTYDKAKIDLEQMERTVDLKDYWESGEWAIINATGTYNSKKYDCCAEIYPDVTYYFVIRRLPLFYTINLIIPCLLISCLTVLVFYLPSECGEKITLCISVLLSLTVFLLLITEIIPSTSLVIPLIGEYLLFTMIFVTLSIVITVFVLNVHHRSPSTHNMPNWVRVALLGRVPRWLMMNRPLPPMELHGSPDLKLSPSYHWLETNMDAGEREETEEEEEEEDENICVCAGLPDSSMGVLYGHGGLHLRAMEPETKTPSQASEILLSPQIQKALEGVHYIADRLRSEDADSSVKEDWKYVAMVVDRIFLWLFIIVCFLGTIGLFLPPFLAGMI
Sequence of Neuronal acetylcholine receptor; alpha2/beta4 (P12392 whole entry): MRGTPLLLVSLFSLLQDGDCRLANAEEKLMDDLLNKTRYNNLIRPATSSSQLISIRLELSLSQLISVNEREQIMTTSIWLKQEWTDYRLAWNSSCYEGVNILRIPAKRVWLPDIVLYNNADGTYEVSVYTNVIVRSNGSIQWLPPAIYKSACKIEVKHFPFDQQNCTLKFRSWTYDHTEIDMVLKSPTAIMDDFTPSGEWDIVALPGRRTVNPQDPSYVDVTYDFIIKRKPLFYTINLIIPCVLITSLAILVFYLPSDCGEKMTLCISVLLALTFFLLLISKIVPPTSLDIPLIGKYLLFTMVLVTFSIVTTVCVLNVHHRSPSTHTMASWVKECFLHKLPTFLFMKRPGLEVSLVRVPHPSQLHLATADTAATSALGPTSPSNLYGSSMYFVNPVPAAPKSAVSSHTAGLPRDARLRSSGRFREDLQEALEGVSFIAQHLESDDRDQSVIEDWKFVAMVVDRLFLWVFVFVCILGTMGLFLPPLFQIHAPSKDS
Sequence of Neuronal acetylcholine receptor; alpha2/beta2 (P12389 whole entry): as the sequence (P12389 whole entry) above
Sequence of Neuronal acetylcholine receptor; alpha2/beta2 (P12390 whole entry): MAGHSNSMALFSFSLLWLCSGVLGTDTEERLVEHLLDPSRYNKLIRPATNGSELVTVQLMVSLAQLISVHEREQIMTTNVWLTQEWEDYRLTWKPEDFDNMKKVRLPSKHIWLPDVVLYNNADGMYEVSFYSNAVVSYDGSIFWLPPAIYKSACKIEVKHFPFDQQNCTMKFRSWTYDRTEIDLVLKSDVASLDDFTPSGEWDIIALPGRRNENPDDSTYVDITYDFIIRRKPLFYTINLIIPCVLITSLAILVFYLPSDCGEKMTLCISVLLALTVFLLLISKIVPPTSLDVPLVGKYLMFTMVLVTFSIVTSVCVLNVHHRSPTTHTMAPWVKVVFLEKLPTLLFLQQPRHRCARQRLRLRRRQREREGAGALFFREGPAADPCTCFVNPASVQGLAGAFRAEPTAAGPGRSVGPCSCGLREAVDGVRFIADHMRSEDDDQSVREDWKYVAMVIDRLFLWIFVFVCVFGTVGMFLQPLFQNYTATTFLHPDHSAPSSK
Sequence of Neuronal acetylcholine receptor subunit alpha-7 (P36544 whole entry): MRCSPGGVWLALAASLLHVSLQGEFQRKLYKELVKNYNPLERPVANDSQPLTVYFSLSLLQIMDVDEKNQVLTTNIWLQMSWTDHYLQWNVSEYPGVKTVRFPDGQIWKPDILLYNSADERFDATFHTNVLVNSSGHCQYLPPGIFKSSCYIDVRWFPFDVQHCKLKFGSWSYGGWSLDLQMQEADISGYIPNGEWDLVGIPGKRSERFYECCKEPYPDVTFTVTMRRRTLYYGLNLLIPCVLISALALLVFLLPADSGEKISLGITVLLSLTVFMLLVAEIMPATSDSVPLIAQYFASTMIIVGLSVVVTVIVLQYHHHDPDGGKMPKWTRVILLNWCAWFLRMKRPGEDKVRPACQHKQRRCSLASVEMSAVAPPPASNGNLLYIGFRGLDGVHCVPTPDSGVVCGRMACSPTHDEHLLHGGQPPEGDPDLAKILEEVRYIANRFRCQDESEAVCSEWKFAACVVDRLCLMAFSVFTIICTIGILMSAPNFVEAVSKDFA

Consider `C[C@@H]1NC(=O)[C@@H]2CSSC[C@H](NC(=O)CN)C(=O)N[C@@H](CSSC[C@@H](C(N)=O)NC(=O)[C@H](Cc3cnc[nH]3)NC(=O)[C@H](CCC(=O)O)NC(=O)[C@H](Cc3cnc[nH]3)NC1=O)C(=O)N[C@@H](CO)C(=O)N[C@@H](CC(N)=O)C(=O)N1CCC[C@H]1C(=O)N1CCC[C@H]1C(=O)N2` (H-GCCSNPPCAHEHC-NH2; disulfide 2-8, 3-13), for which the half-maximal inhibitory concentration (IC50) in experiment [1] came to 430 nM; in experiment [2] it was 1130 nM; in experiment [3], 190 nM; in experiment [4] it was 160 nM; in experiment [5] it was 150 nM; in experiment [7], 530 nM. Further, the IC50 in experiment [8] was above 10000 nM; in experiment [9], 130 nM; in experiment [11] it was 1410 nM; in experiment [12], 1570 nM; in experiment [13] it was above 10000 nM; in experiment [14] it was 220 nM. Further, the concentration for half-maximal inhibition (IC50) in [15] is above 10000 nM; in experiment [17] it was 170 nM; in experiment [18], above 10000 nM; in experiment [19], 710 nM; in experiment [20], above 10000 nM; in experiment [21] it was 160 nM. Also, the IC50 in experiment [22] is above 10000 nM; in experiment [23], 1070 nM; in [24], 200 nM. For the same compound, the inhibition result in [6], in [10] and in experiment [16] was “inactive” throughout.
